# Assay results as given in patent publication US20060062846A1, “Alfuzosin tablets and synthesis” (Cimex Pharma AG, priority 2004, published 2006).
# Structures can show the parent of a compound that is named as a salt.
# Tests used:
# solubility in water = type: physicochemical
# [1] = immediate-release tablet, cited from earlier work
compound,measurement,setting,value
"COc1cc2nc(N(C)CCCNC(=O)C3CCCO3)nc(N)c2cc1OC (racemic) [alfuzosin hydrochloride, (R,S)-N-(3-(4-amino-6,7-dimethoxy-2-quinazolinyl)methylamino) propyl) tetrahydro-2-furancarboxamide hydrochloride]",solubility in water,solubility in water,freely soluble in water
same,Peak plasma concentrations reached after administration (time),[1],≤ 1 h
same,inter-individual fluctuations in plasma concentrations,[1],sevenfold
same,Terminal elimination half-life,[1]; range printed (1-10 h),approximately 5 h
same,Bioavailability,[1]; range printed (45-90%),64%
